Source: US4843085A, “Pyridine derivatives, process for production thereof and pharmaceutical compositions useful as anti-arhytmics” (Yamanouchi Pharmaceutical Co., Ltd., priority 1987, dated 1989)
Counter-ions that a name gives are not always drawn.

What follows are molecules tested on corneal reflex responses (assay: Local anesthetic activity (corneal reflex responses)). Conditions: instilled into the cornea, guinea-pigs.
Format: in vivo, guinea-pigs (male Hartley strain)
Experimental: Solutions of the compounds were instilled into the cornea, and the corneal reflex responses were determined.

Structure (SMILES)	ED50 (concentration required to inhibit corneal reflex responses by 50%)
COC(=O)c1c(C)nc(C)c(C(=O)OC)c1-c1cc([N+](=O)[O-])ccc1OCCCCNC[C@H](O)COc1ccccc1.O=C(O)C(=O)O.O=C(O)C(=O)O [Example 1, Dimethyl 4-[2-[4-[[(S)-2-hydroxy-3-phenoxypropyl]amino]butoxy]-5-nitrophenyl]-2,6-dimethylpyridine-3,5dicarboxylate dioxalate]	0.49%
CCN(CC)CC(=O)Nc1c(C)cccc1C [Lidocaine, reference compound]	0.82%
COC(=O)c1c(C)nc(C)c(C(=O)OC)c1-c1cc([N+](=O)[O-])ccc1OCCCCNC[C@@H](O)COc1ccccc1 [Example 2, Dimethyl 4-[2-[4-[[(R)-2-hydroxy-3-phenoxypropyl]amino]butoxy]-5-nitrophenyl]-2,6-dimethylpyridine-3,5-dicarboxylate oxalate]	0.32%
